Source: US8778975B2, “Helicobacter pylori eradicating agent having inhibitory activity on gastric acid secretion” (Link Geonomics, Inc., priority 2006, dated 2014)
Values joined by “and” are separate entries in the source; they are usually repeats but may differ in a detail not shown here. Equal entries are not always repeated. Where two headings read alike, the source gives them in different places.

Tested on: Helicobacter pylori bacteria (ATCC 43504)
Assay: Antiulcer action and bacteria eradicating action in Helicobacter pylori-infected Mongolian gerbils
Format: in vivo
Settings: for Number of Bacteria (average) (log CFU): gastric mucosa; for responders at 10 mg/kg / responders at 30 mg/kg: Helicobacter pylori
Method: Mongolian gerbils were experimentally infected with Helicobacter pylori bacteria, and the antiulcer action and the Helicobacter pylori bacteria eradicating action of the compounds of the present invention were tested.
Male Mongolian gerbils (30 to 40 g), five animals in each group, were orally inoculated with Helicobacter pylori bacteria (ATCC 43504) at 1.6×10^7 CFU/0.5 ml/mouse, and bred for one week, and then drug was administered two times a day for two weeks. Thereafter, the […] were bred for three weeks, and then the rats were fasted for 18 hours and subjected to abdominal section, followed by autopsy. The severity of gastric ulcer, the number of Helicobacter pylori bacteria in the gastric mucosa, and the antibody titer were measured.

[1] = 30 mg/kg, two times a day for two weeks
[2] = ATCC43504, 336 h, 30 mg/kg, two times a day for two weeks, read-out: Eradication rate (%)
[3] = ATCC43504, Table 8, amount of administration (mg) 30, read-out: HP eradication based on Mongolian gerbil infection model: Eradication rate (%)

| SMILES | Antibody titer (average) (10 mg/kg) | Number of Bacteria (average) (log CFU) (10 mg/kg) | Number of Ulcers discovered (10 mg/kg, two times a day for two weeks) | Antibody titer (average) (30 mg/kg) | Number of Bacteria (average) (log CFU) (30 mg/kg) | Number of Ulcers discovered [1] | responders at 10 mg/kg (ATCC43504, 336 h, 10 mg/kg, two times a day for two weeks, read-out: Eradication rate (%)) | responders at 30 mg/kg [2] | responders at 10 mg/kg (ATCC43504, Table 8, amount of administration (mg) 10, read-out: HP eradication based on Mongolian gerbil infection model: Eradication rate (%)) | responders at 30 mg/kg [3] |
| --- | --- | --- | --- | --- | --- | --- | --- | --- | --- | --- |
| CCCCCOc1ccnc(CSc2nc3ccccc3[nH]2)c1C [Example 1, 2-[(4-n-pentyloxy-3-methylpyridin-2-yl)-methylthio]-1H-benzimidazole] | 0.07 | <3 log CFU | inhibited generation of ulcer and 0/5 | 0.05 | <3 log CFU | 0/5 | 100% | 100% | 100% | – |
| CCCCCCOc1ccnc(CSc2nc3ccccc3[nH]2)c1C [Example 2, 2-[(4-n-hexyloxy-3-methylpyridin-2-yl)-methylthio]-1H-benzimidazole] | – | – | – | 0.17 | <3 log CFU | 0/5 | – | 100% | – | 100% |
| CCCCCCCOc1ccnc(CSc2nc3ccccc3[nH]2)c1C [Example 3, 2-[(4-n-heptyloxy-3-methylpyridin-2-yl)-methylthio]-1H-benzimidazole] | – | – | – | 0.22 | <3 log CFU | 0/5 | – | 100% | – | 100% |
